Experimental data taken from article PMC4020785 (PLoS ONE, 2014).

How the values were obtained:
[1] = test system: PKC; test: PKC inhibitors on diterpene-induced GFP expression in J-Lat clones 9.2 and 10.6; type: cell-based
Experimental: (§1) For analysis of cell surface marker expression, MT-4 cells and bead-selected CD4+ T cells (described above) were incubated with 1 µM of each compound (ING-A, ING-B, ING-C, prostratin, PMA, and bryostatin-1) at 37°C for 48 h. After incubation, cells were washed with PBS and incubated for 20 min at room temperature with antibodies against CD3-Brilliant Violet 510 (clone OKT3 – Biolegend), CD4-Qdot 655 (clone 53.5 - Life Technologies), CXCR4-PE (clone 1265 - BD Biosciences), CCR5-PerCP-Cy5.5 (clone 3A9 - BD Biosciences), CD69-Pacific Blue (clone FN50 – BD Biosciences), CD38-FITC (clone AT-1 – Stem Cell Technologies), CD25-APC (clone 2A3 – BD Biosciences), HLA-DR-Qdot 605 (clone TÜ36 – Life Technologies) and a marker for annexin V-FITC (Life Technologies). Cells (both MT-4 cells and CD4+ T cells) were initially incubated for 2 h with different PKC inhibitors (GÖ6983, GÖ6976 or RO-31-8220). Then, ING-B, prostratin or PMA at 1 µM or TNF-α at 10 ng/mL were added to each condition and incubation was carried out for 24 h at 37°C. Similar protocol was used for the analysis of PKC inhibitors in J-Lat clones 9.2 and 10.6. GFP expression, surface marker expression and activation marker were evaluated on a LSR Fortessa cytometer (BD Biosciences). Data analysis was performed using FlowJo software (Tree Star).

[2] = test system: PKC; test: PKC inhibitors on ING-B-driven receptor downregulation in MT-4 cells; type: cell-based; conditions: 0.1 µM inhibitor, then 1 µM ING-B 24 h
Experimental: as §1

[3] = test system: PKC; test: PKC inhibitors on ING-B-driven receptor downregulation in CD4+ T lymphocytes; type: cell-based, human; conditions: 0.1 µM inhibitor in the presence of 1 µM ING-B
Experimental: as §1

[4] = test system: HIV-1 clone NL4.3 (subtype B); test: HIV-1 NL4.3 (subtype B) infection of MT-4 cells, Cell Titer Blue readout; type: cell-based; conditions: for EC50: Human immunodeficiency virus 1, MT4; for TI (CC50/EC50): MT-4 cells, Subtype B (X4)
Experimental: (§2) Human PMBCs were incubated with 100 U recombinant IL-2 (Sigma-Aldrich) and 5 µg/mL phytohemagglutinin-P (PHA-P) (Difco) for 5 days at 37°C. MT-4 cells (1×10^6) or treated PBMCs (1.2×10^8) were infected with HIV-1 clone NL-4.3 or ZM247Fv-1 (MOI of 0.001) by spinoculation (1200 g at room temperature for 2 h). Uninfected cells were used as negative control and were also subjected to the spinoculation process. After spinoculation, supernatants were discarded and cells were resuspended in 10 mL of R10. Cells from each condition were then added to wells (96-well plate) containing serial dilutions of each ISD. For MT-4 cells, each dilution was done in sextuplicates and, for PBMCs, in triplicates. Cells were also incubated with different concentrations of ZDV as positive control. After 5 days in culture, Cell Titer Blue was added to each well and cells were incubated for additional 24 h. The median effective concentration for each drug is defined as EC50. In parallel with the infectivity assay, the same cell types were treated with different concentrations of drugs to determine their cytotoxicity, following the protocol described above. Drug concentration that results in a 50% decrease in viable cells is defined as the CC50 for each compound. EC50 was calculated according to Spearman-Karber and therapeutic index was defined by the ratio between CC50 and EC50 [55].
(§3) All statistical analyses were performed using program GraphPism version 6.0. Titrations for TCID50 infectivity were calculated by the Spearman-Karber method. Dose response curves to ISDs with HIV-1 subtype B and C were done using non-linear regression and were fit to the Hill equation.

[5] = test system: HIV-1 clone ZM247Fv-1 (subtype C); test: HIV-1 ZM247Fv-1 (subtype C) infection of MT-4 cells, Cell Titer Blue readout; type: cell-based; conditions: for EC50: Human immunodeficiency virus 1, MT4; for TI (CC50/EC50): MT-4 cells, Subtype C (R5)
Experimental: as §2, §3

[6] = test system: HIV-1 clone NL4.3 (subtype B); test: HIV-1 NL4.3 (subtype B) infection of human PBMCs, Cell Titer Blue readout; type: cell-based; conditions: for TI (CC50/EC50): Human PBMC, Subtype B (X4); for EC50: Human immunodeficiency virus 1, PBMC
Experimental: as §2, §3

[7] = test system: HIV-1 clone ZM247Fv-1 (subtype C); test: HIV-1 ZM247Fv-1 (subtype C) infection of human PBMCs, Cell Titer Blue readout; type: cell-based; conditions: for TI (CC50/EC50): Human PBMC, Subtype C (R5); for EC50: Human immunodeficiency virus 1, PBMC
Experimental: as §2, §3

[8] = Cytotoxicity (CC50) in MT-4 cells; type: cell-based; conditions: human, Subtype B (X4)
Experimental: (§4) Cytotoxicity of ISDs was evaluated in J-Lat (clones 9.2 and 10.6) and PHA-activated human PBMCs. Cells were added to wells in a 96-well plate in the presence of various concentrations of ISDs, PMA or prostratin in sextuplicates for 24 and 72 h. Cell viability was determined using the CellTiter-blue fluorescence Cell Viability Assay (Promega) following the manufacturer's instruction.
as §2

[9] = Cytotoxicity (CC50) in human PBMCs; type: cell-based; conditions: human PBMCs activated with IL-2 and PHA-P; Human PBMC, Subtype C (R5)
Experimental: as §4, §2

[10] = test system: HIV LTR in J-Lat clones; test: LTR-driven GFP expression in J-Lat clones; type: cell-based, HIV-1; conditions: J-Lat clones 9.2 and 10.6, 48 h, all concentrations tested
Experimental: J-Lat cells are Jurkat cells stably transfected by an HIV genome whose nef sequence was replaced by the GFP gene. Also, a frameshift mutation was introduced to the env gene to prevent virus spread. […] To test the ISDs, a million cells of each clone were treated with different concentrations of each compound (ING-A, ING-B, ING-C, prostratin and PMA) at 37°C. TNF-α (10 ng/mL) was used as a positive control. After 48 h, cells were collected, washed with saline solution (PBS) and GFP expression was evaluated in a FACScalibur cytometer (BD Biosciences). Data were analyzed with Cell Quest Pro software (BD Biosciences).

[11] = test system: HIV; set-up: method as in PMID 8787923; conditions: MT-4 cells; cited from earlier work

SMILES | effect on ISD induction of GFP expression ([1]; 0.1 µM inhibitor) | effect on ING-B-driven receptor downregulation [2] | blocking of GFP expression induced by ING-B ([1]; J-Lat clones 9.2 and 10.6, pre-treatment, then ING-B 24 h) | overexpression of CD4 and CCR5 compared to untreated control [3] | EC50 [4] | TI (CC50/EC50) [4] | EC50 [5] | TI (CC50/EC50) [5] | TI (CC50/EC50) [6] | EC50 [6] | TI (CC50/EC50) [7] | EC50 [7] | CC50 at 5 days [8] | CC50 at 5 days [9] | levels of GFP expression, rank order [10] | concentration inhibiting HIV replication (as low as) [11]
Cn1c2ccccc2c2c3c(c4c5ccccc5n(CCC#N)c4c21)C(=O)NC3 [GÖ6976] | little effect | little effect on blocking receptor downregulation | – | – | – | – | – | – | – | – | – | – | – | – | – | –
COc1ccc2c(c1)c(C1=C(c3c[nH]c4ccccc34)C(=O)NC1=O)cn2CCCN(C)C [GÖ6983] | – | not able to downregulate the expression of CD4 and CXCR4 | strongly blocked GFP expression | up to 2.5 fold | – | – | – | – | – | – | – | – | – | – | – | –
CC1=C[C@]23C(=O)[C@@H](C=C(CO)[C@@H](O)[C@]2(O)[C@H]1OC(=O)/C=C/c1ccccc1)[C@H]1[C@@H](C[C@H]3C)C1(C)C [ING-A, ingenol-3-trans-cinnamate] | – | – | – | – | 37 nM | 675.6 | 38 nM | 657.9 | 641.5 | 53 nM | 693.9 | 49 nM | 25000 nM | 34000 nM | PMA = ING-B > ING-A = ING-C > prostratin | –
CCCCCCCCCCCC(=O)O[C@H]1C(C)=C[C@]23C(=O)[C@@H](C=C(CO)[C@@H](O)[C@]12O)[C@H]1[C@@H](C[C@H]3C)C1(C)C [ING-C, ingenol-3-dodecanoate] | – | – | – | – | 41 nM | 658.5 | 36 nM | 750 | 730.7 | 52 nM | 413 | 92 nM | 27000 nM | 38000 nM | PMA = ING-B > ING-A = ING-C > prostratin | –
CC(=O)OCC1=C[C@@H]2C(=O)[C@]3(C=C(C)[C@H](OC(C)=O)[C@@]3(O)[C@@H]1OC(C)=O)[C@H](C)C[C@@H]1[C@H]2C1(C)C [ITA, Ingenol 3,5,20-triacetate] | – | – | – | – | – | – | – | – | – | – | – | – | – | – | – | ≥ 0.05 µM
